Like-named read-outs stand apart in the source and are kept apart here.
Legend:
17β-HSD3 [1] = target: T1, 17β-HSD3 (Homo sapiens, UniProt P37058); experiment: Inhibition of 17β-HSD3 in homogenated HEK-293 cells; assay type: biochemical; conditions: for inhibition at 1 µM: read-out: Homo (%) (1.0 μM), Table 4
T1 construct: expressed in transfected cells; host or cells: HEK-293 (homogenate)
T1 sequence (P37058 1-310): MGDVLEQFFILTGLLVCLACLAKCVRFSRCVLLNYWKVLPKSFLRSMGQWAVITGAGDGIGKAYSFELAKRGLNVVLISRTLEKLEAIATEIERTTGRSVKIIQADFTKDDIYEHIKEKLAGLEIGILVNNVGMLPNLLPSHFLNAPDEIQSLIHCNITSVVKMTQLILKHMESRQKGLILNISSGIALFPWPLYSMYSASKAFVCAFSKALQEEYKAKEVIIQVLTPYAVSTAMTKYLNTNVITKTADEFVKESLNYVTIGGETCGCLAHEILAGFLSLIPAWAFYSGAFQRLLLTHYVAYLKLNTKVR

17β-HSD3 [2] = target: T1, 17β-HSD3; experiment: Inhibition of 17β-HSD3 in intact HEK-293 cells; assay type: cell-based; conditions: for inhibition at 0.1 µM: HEK293, 1 h
[3] = Table 3, read-out: Homo (%) (0.01 μM)
[4] = Table 3, read-out: Homo (%) (0.1 μM)
[5] = Table 3, read-out: Intact cells (%) (0.1 μM)
[6] = read-out: Homo (%) (0.01 μM), Table 4
[7] = read-out: Homo (%) (0.1 μM), Table 4
[8] = read-out: Intact cells (%) (0.1 μM), Table 4

| SMILES | Homo (%) (0.01 μM) (17β-HSD3 [1]; Table 3) | Homo (%) (0.1 μM) (17β-HSD3 [1]; Table 3) | Intact cells (%) (0.1 μM) (17β-HSD3 [2]; Table 3) | inhibition at 0.01 µM (17β-HSD3 [1]; [6]) | inhibition at 0.1 µM (17β-HSD3 [1]; [7]) | inhibition at 0.1 µM (17β-HSD3 [2]; [8]) | also measured |
| --- | --- | --- | --- | --- | --- | --- | --- |
| C[C@]12CC[C@](O)(CN3CCN(Cc4cc(C(F)(F)F)ccc4C(F)(F)F)CC3)C[C@@H]1CC[C@@H]1[C@@H]2CC[C@]2(C)C(=O)CC[C@@H]12 [Compound 10h, (3α,5α)-3-({4-[2,5-bis(trifluoromethyl)benzyl]piperazin-1-yl}methyl)-3-hydroxyandrostan-17-one] | 18% | 85% | 12% | – | – | – | – |
| C[C@]12CC[C@](O)(CN3CCN(Cc4ccc(C(F)(F)F)cc4C(F)(F)F)CC3)C[C@@H]1CC[C@@H]1[C@@H]2CC[C@]2(C)C(=O)CC[C@@H]12 [Compound 10i, (3α,5α)-3-({4-[2,4-bis(trifluoromethyl)benzyl]piperazin-1-yl}methyl)-3-hydroxyandrostan-17-one] | 22% | 75% | 16% | – | – | – | – |
| C[C@]12CC[C@](O)(CN3CCN(Cc4cc(C(F)(F)F)cc(C(F)(F)F)c4)CC3)C[C@@H]1CC[C@@H]1[C@@H]2CC[C@]2(C)C(=O)CC[C@@H]12 [Compound 10j, (3α,5α)-3-({4-[3,5-bis(trifluoromethyl)benzyl]piperazin-1-yl}methyl)-3-hydroxyandrostan-17-one] | 25% | 83% | 25% | – | – | – | – |
| CC1CN(C[C@@]2(O)CC[C@@]3(C)[C@@H](CC[C@@H]4[C@@H]3CC[C@]3(C)C(=O)CC[C@@H]43)C2)C(C)CN1Cc1cc(C(F)(F)F)ccc1C(F)(F)F (stereo partly drawn) [Compound 11h, (3α,5α)-3-({(2ξ,5ξ)-4-[2,5-bis(trifluoromethyl)benzyl]-2,5-dimethylpiperazin-1-yl}methyl)-3-hydroxyandrostan-17-one] | 16% | 71% | 23% | – | – | – | – |
| CC1CN(CC2(O)CCC3(C)C(CCC4C5CCC(=O)C5(C)CCC43)C2)C(C)CN1Cc1ccc(C(F)(F)F)cc1C(F)(F)F (stereo not drawn) [Compound 11i, (3α,5α)-3-({(2ξ,5ξ)-4-[2,4-bis(trifluoromethyl)benzyl]-2,5-dimethylpiperazin-1-yl}methyl)-3-hydroxyandrostan-17-one] | 15% | 71% | 21% | – | – | – | – |
| CC1CN(C[C@@]2(O)CC[C@@]3(C)[C@@H](CC[C@@H]4[C@@H]3CC[C@]3(C)C(=O)CC[C@@H]43)C2)C(C)CN1Cc1cc(C(F)(F)F)cc(C(F)(F)F)c1 (stereo partly drawn) [Compound 11j, (3α,5α)-3-({(2ξ,5ξ)-4-[3,5-bis(trifluoromethyl)benzyl]-2,5-dimethylpiperazin-1-yl}methyl)-3-hydroxyandrostan-17-one] | 25% | 74% | 16% | – | – | – | – |
| C[C@]12CC[C@](O)(CN3CCN(C(=O)c4ccccc4)CC3)C[C@@H]1CC[C@@H]1[C@@H]2CC[C@]2(C)C(=O)CC[C@@H]12 [Compound 12a, (3α,5α)-3-hydroxy-3-{[4-(phenylcarbonyl)piperazin-1-yl]methyl}androstan-17-one] | – | – | – | – | – | – | inhibition at 0.01 µM (17β-HSD3 [1]; read-out: Homo (%) (0.01 μM), Table 3): 17%; inhibition at 0.1 µM (17β-HSD3 [1]; read-out: Homo (%) (0.1 μM), Table 3): 76%; inhibition at 0.1 µM (17β-HSD3 [2]; read-out: Intact cells (%) (0.1 μM), Table 3): 50% |
| C[C@]12CC[C@](O)(CN3CCN(C(=O)C4CCCCC4)CC3)C[C@@H]1CC[C@@H]1[C@@H]2CC[C@]2(C)C(=O)CC[C@@H]12 [Compound 12b, (3α,5α)-3-{[4-(cyclohexylcarbonyl)piperazin-1-yl]methyl}-3-hydroxyandrostan-17-one] | 19% | 75% | – | – | – | – | Intact cells (%), tested at 1 μM (17β-HSD3 [2]; Table 3, footnote b, 1 μM): N/A (70)^b % |
| C[C@]12CC[C@](O)(CN3CCN(C(=O)c4cccc(C(F)(F)F)c4)CC3)C[C@@H]1CC[C@@H]1[C@@H]2CC[C@]2(C)C(=O)CC[C@@H]12 [Compound 12d, (3α,5α)-3-hydroxy-3-[(4-{[3-(trifluoromethyl)phenyl]carbonyl}piperazin-1-yl)methyl]androstan-17-one] | – | – | – | – | – | – | inhibition at 0.01 µM (17β-HSD3 [1]; [3]): 10%; inhibition at 0.1 µM (17β-HSD3 [1]; [4]): 92%; inhibition at 0.1 µM (17β-HSD3 [2]; [5]): 91% |
| C[C@]12CC[C@](O)(CN3CCN(C(=O)c4ccc(C(F)(F)F)cc4)CC3)C[C@@H]1CC[C@@H]1[C@@H]2CC[C@]2(C)C(=O)CC[C@@H]12 [Compound 12e, (3α,5α)-3-hydroxy-3-[(4-{[4-(trifluoromethyl)phenyl]carbonyl}piperazin-1-yl)methyl]androstan-17-one] | – | – | – | – | – | – | inhibition at 0.01 µM (17β-HSD3 [1]; [3]): 22%; inhibition at 0.1 µM (17β-HSD3 [1]; [4]): 84%; inhibition at 0.1 µM (17β-HSD3 [2]; [5]): 56% |
| CC1CN(C(=O)c2ccccc2)C(C)CN1C[C@@]1(O)CC[C@@]2(C)[C@@H](CC[C@@H]3[C@@H]2CC[C@]2(C)C(=O)CC[C@@H]32)C1 (stereo partly drawn) [Compound 13a, (3α,5α)-3-{[(2ξ,5ξ)-2,5-dimethyl-4-(phenylcarbonyl)piperazin-1-yl]methyl}-3-hydroxyandrostan-17-one] | 24% | 87% | 78% | – | – | – | – |
| CC1CN(C(=O)C2CCCCC2)C(C)CN1C[C@@]1(O)CC[C@@]2(C)[C@@H](CC[C@@H]3[C@@H]2CC[C@]2(C)C(=O)CC[C@@H]32)C1 (stereo partly drawn) [Compound 13b, (3α,5α)-3-{[(2ξ,5ξ)-4-(cyclohexylcarbonyl)-2,5-dimethylpiperazin-1-yl]methyl}-3-hydroxyandrostan-17-one] | 24% | 90% | 77% | – | – | – | – |
| CC1CN(C(=O)c2cccc(C(F)(F)F)c2)C(C)CN1CC1(O)CCC2(C)C(CCC3C4CCC(=O)C4(C)CCC32)C1 (stereo not drawn) [Compound 13c, (3α,5α)-3-{[(2ξ,5ξ)-2,5-dimethyl-4-{[3-(trifluoromethyl)phenyl]carbonyl}piperazin-1-yl]methyl}-3-hydroxyandrostan-17-one] | 28% | 89% | 70% | – | – | – | – |
| Cc1ccc(CN2C[C@]3(CC[C@@]4(C)[C@@H](CC[C@@H]5[C@@H]4CC[C@]4(C)C(=O)CC[C@@H]54)C3)OC2=O)cc1 [Compound 17b, (3R,5S,8R,9S,10S,13S,14S)-10,13-dimethyl-3′-(4-methylbenzyl)tetrahydrodecahydro-2′H-spiro[cyclopenta[α]phenanthrene-3,5′-[1,3]oxazolidine]-2′,17(2H)-dione] | – | – | – | 17% | 81% | 38% | inhibition at 1 µM (17β-HSD3 [1]): 93% |
| COc1ccc(CN2C[C@]3(CC[C@@]4(C)[C@@H](CC[C@@H]5[C@@H]4CC[C@]4(C)C(=O)CC[C@@H]54)C3)OC2=O)cc1 [Compound 17c, (3R,5S,8R,9S,10S,13S,14S)-3′-(4-methoxybenzyl)-10,13-dimethyltetradecahydro-2′H-spiro[cyclopenta[α]phenanthrene-3,5′-[1,3]oxazolidine]-2′,17(2H)-dione] | – | – | – | 5% | 84% | 43% | inhibition at 1 µM (17β-HSD3 [1]): 93% |
| C[C@]12CC[C@@]3(C[C@@H]1CC[C@@H]1[C@@H]2CC[C@]2(C)C(=O)CC[C@@H]12)CN(Cc1ccc(C(F)(F)F)cc1)C(=O)O3 [Compound 17d, (3R,5S,8R,9S,10S,13S,14S)-10,13-dimethyl-3′-[4-(trifluoromethyl)benzyl]tetradecahydro-2′H-spiro[cyclopenta[α]phenanthrene-3,5′-[1,3]oxazolidine]-2′,17(2H)-dione] | – | – | – | 25% | 80% | 43% | – |
| C[C@]12CC[C@@]3(C[C@@H]1CC[C@@H]1[C@@H]2CC[C@]2(C)C(=O)CC[C@@H]12)CN(Cc1ccc(C(F)(F)F)nc1)C(=O)O3 [Compound 17e] | – | – | – | 3% | 65% | 36% | – |
| C[C@]12CC[C@@]3(C[C@@H]1CC[C@@H]1[C@@H]2CC[C@]2(C)C(=O)CC[C@@H]12)CN(Cc1ccccc1C(F)(F)F)C(=O)O3 [Compound 17f, (3R,5S,8R,9S,10S,13S,14S)-10,13-dimethyl-3′-[2-(trifluoromethyl)benzyl]tetradecahydro-2′H-spiro[cyclopenta[α]phenanthrene-3,5′-[1,3]oxazolidine]-2′,17(2H)-dione] | – | – | – | 17% | 81% | 35% | – |
| C[C@]12CC[C@@]3(C[C@@H]1CC[C@@H]1[C@@H]2CC[C@]2(C)C(=O)CC[C@@H]12)CN(Cc1cccc(C(F)(F)F)c1)C(=O)O3 [Compound 17g, (3R,5S,8R,9S,10S,13S,14S)-10,13-dimethyl-3′-[3-(trifluoromethyl)benzyl]tetradecahydro-2′H-spiro[cyclopenta[α]phenanthrene-3,5′-[1,3]oxazolidine]-2′,17(2H)-dione] | – | – | – | 16% | 80% | 36% | – |
| C[C@]12CC[C@@]3(C[C@@H]1CC[C@@H]1[C@@H]2CC[C@]2(C)C(=O)CC[C@@H]12)CN(Cc1cc(C(F)(F)F)cc(C(F)(F)F)c1)C(=O)O3 [Compound 17h, (3R,5S,8R,9S,10S,13S,14)-3′-[3,5-bis(trifluoromethyl)benzyl]-10,13-dimethyletradecahydro-2′H-spiro[cyclopenta[α]phenanthrene-3,5′-[1,3]oxazolidine]-2′,17(2H)-dione] | – | – | – | 12% | 66% | 35% | – |

From patent publication US11072632B2, “Inhibitors of 17β-HSD1, 17β-HSD3 and 17β-HSD10” (UNIVERSITÉ LAVAL, priority 2011, dated 2021)
